Results from patent US20220132847A1, “CINNOLINIUM COMPOUNDS FOR USE IN A METHOD OF CONTROLLING UNWANTED PLANT GROWTH” (SYNGENTA CROP PROTECTION AG, priority 2019, published 2022).

Assays:
Assay in all cases: Post-emergence efficacy, glasshouse
Assay type in all cases: in vivo
[1] = tested on: Amaranthus palmeri (AMAPA); conditions: Amaranthus palmeri, post-emergence, 312 h, evaluated after 13 days, 100=total damage to plant, 0=no damage to plant, read-out: Control of weed species after post-emergence application, AMAPA; for pest or weed control at 500 g/ha: Application Rate 500 g/Ha; for pest or weed control at 1000 g/ha: Application Rate 1000 g/Ha
In short: (§1)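 Plants grown 14 days in glasshouse (24/16° C, 14 h light, 65% humidity), then sprayed post-emergence with active ingredient in IF50 solvent/emulsifier mix, diluted in 0.25% or 1% Empicol ESC70 + 1% ammonium sulphate. Damage scored 13 days later, 0–100 (100 = total damage).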

[2] = tested on: Echinochloa crus-galli (ECHCG); conditions: Echinochloa crus-galli, post-emergence, 312 h, evaluated after 13 days, 100=total damage to plant, 0=no damage to plant, read-out: Control of weed species after post-emergence application, ECHCG; for pest or weed control at 500 g/ha: Application Rate 500 g/Ha; for pest or weed control at 1000 g/ha: Application Rate 1000 g/Ha
In short: as §1

[3] = tested on: Digitaria sanguinalis (DIGSA); conditions: Digitaria sanguinalis, post-emergence, 312 h, evaluated after 13 days, 100=total damage to plant, 0=no damage to plant, read-out: Control of weed species after post-emergence application, DIGSA; for pest or weed control at 500 g/ha: Application Rate 500 g/Ha; for pest or weed control at 1000 g/ha: Application Rate 1000 g/Ha
In short: as §1

Eleusine indica (ELEIN) = conditions: Eleusine indica, post-emergence, 312 h, evaluated after 13 days, 100=total damage to plant, 0=no damage to plant, read-out: Control of weed species after post-emergence application, ELEIN; for pest or weed control at 500 g/ha: Application Rate 500 g/Ha; for pest or weed control at 1000 g/ha: Application Rate 1000 g/Ha
In short: as §1

[4] = tested on: Euphorbia heterophylla (EPHHL); conditions: Euphorbia heterophylla, post-emergence, 312 h, evaluated after 13 days, 100=total damage to plant, 0=no damage to plant, read-out: Control of weed species after post-emergence application, EPHHL; for pest or weed control at 500 g/ha: Application Rate 500 g/Ha; for pest or weed control at 1000 g/ha: Application Rate 1000 g/Ha
In short: as §1

Lolium perenne (LOLPE) = conditions: Lolium perenne, post-emergence, 312 h, evaluated after 13 days, 100=total damage to plant, 0=no damage to plant, read-out: Control of weed species after post-emergence application, LOLPE; for pest or weed control at 500 g/ha: Application Rate 500 g/Ha; for pest or weed control at 1000 g/ha: Application Rate 1000 g/Ha
In short: as §1

Setaria faberi (SETFA) = conditions: Setaria faberi, post-emergence, 312 h, evaluated after 13 days, 100=total damage to plant, 0=no damage to plant, read-out: Control of weed species after post-emergence application, SETFA; for pest or weed control at 500 g/ha: Application Rate 500 g/Ha; for pest or weed control at 1000 g/ha: Application Rate 1000 g/Ha
In short: as §1

[5] = tested on: Chenopodium album (CHEAL); conditions: Chenopodium album, post-emergence, 312 h, evaluated after 13 days, 100=total damage to plant, 0=no damage to plant, read-out: Control of weed species after post-emergence application, CHEAL; for pest or weed control at 500 g/ha: Application Rate 500 g/Ha; for pest or weed control at 1000 g/ha: Application Rate 1000 g/Ha
In short: as §1

[6] = tested on: Ipomoea hederacea (IPOHE); conditions: Ipomoea hederacea, post-emergence, 312 h, evaluated after 13 days, 100=total damage to plant, 0=no damage to plant, read-out: Control of weed species after post-emergence application, IPOHE; for pest or weed control at 500 g/ha: Application Rate 500 g/Ha; for pest or weed control at 1000 g/ha: Application Rate 1000 g/Ha
In short: as §1

Row | Structure (SMILES) | pest or weed control at 500 g/ha [1] [%] | pest or weed control at 500 g/ha [2] [%] | pest or weed control at 500 g/ha [3] [%] | pest or weed control at 500 g/ha (Eleusine indica (ELEIN)) [%] | pest or weed control at 500 g/ha [4] [%] | pest or weed control at 500 g/ha (Lolium perenne (LOLPE)) [%] | pest or weed control at 500 g/ha (Setaria faberi (SETFA)) [%] | pest or weed control at 500 g/ha [5] [%] | pest or weed control at 500 g/ha [6] [%] | pest or weed control at 1000 g/ha [1] [%] | pest or weed control at 1000 g/ha [2] [%] | pest or weed control at 1000 g/ha [3] [%] | pest or weed control at 1000 g/ha (Eleusine indica (ELEIN)) [%] | pest or weed control at 1000 g/ha [4] [%] | pest or weed control at 1000 g/ha (Lolium perenne (LOLPE)) [%] | pest or weed control at 1000 g/ha (Setaria faberi (SETFA)) [%] | pest or weed control at 1000 g/ha [5] [%] | pest or weed control at 1000 g/ha [6] [%]
1 | CCOP(=O)([O-])c1c[n+](C(C)(C)C)nc2ccccc12 [Compound A75, (2-tert-butylcinnolin-2-ium-4-yl)-ethoxy-phosphinate] | 50 | 70 | 30 | 70 | 30 | 30 | 30 | 50 | 30 | – | – | – | – | – | – | – | – | –
2 | CCOC(=O)Cc1c[n+](C)nc2ccccc12 [Compound A52, ethyl 2-(2-methylcinnolin-2-ium-4-yl)acetate 2,2,2-trifluoroacetate] | 50 | 10 | 30 | 70 | 40 | 10 | 10 | 60 | 20 | – | – | – | – | – | – | – | – | –
3 | C[n+]1cc(C(=O)[O-])c2ccccc2n1 [Compound A1] | – | – | – | – | – | – | – | – | – | 100 | 20 | 90 | 100 | 70 | 50 | 30 | 100 | 70
4 | CC(C)CP(=O)([O-])c1c[n+](C)nc2ccccc12 [Compound A45] | – | – | – | – | – | – | – | – | – | 100 | 70 | 90 | 100 | 100 | 50 | 90 | 90 | 90
